# Data as given in US9050343B2 (ACADIA Pharmaceuticals Inc., priority 2007, dated 2015).
# Values joined by “and” are separate entries in the source; they are usually repeats but may differ in a detail not shown here. Equal entries are not always repeated. Where two headings read alike, the source gives them in different places.
# Key:
# [1] = test system: amphetamine-induced hyperlocomotion in mice; assay: Amphetamine-induced hyperlocomotor activity assay; type: in vivo; settings: for suppression of amphetamine-induced hyperlocomotion: pimavanserin at 0.03 mg/kg sc; for suppression of amphetamine-induced hyperlocomotor activity: antipsychotic combined with a fixed dose of pimavanserin (0.03 mg/kg)
# [2] = test system: dizocilpine-induced hyperlocomotion in mice; assay: Dizocilpine-induced hyperlocomotor activity assay and isobolographic analysis; type: in vivo; settings: for ID50: agent alone, sc
# [3] = test system: schizophrenic subjects with an acute exacerbation of psychosis; assay: Randomized double blind study in schizophrenic subjects: PANSS and CGI-S; type: in vivo, human
# [4] = initial parameter for simulation, 5 mg once daily oral
# serum prolactin levels = assay: Prolactin assay (serum prolactin); type: in vivo, rats; settings: for serum prolactin levels, dose response: compared to vehicle controls, pimavanserin up to 3 mg/kg, FIG. 20A
# Text: (§1) Male non-Swiss albino (NSA) mice and Sprague-Dawley (SD) rats (Harlan, San Diego, Calif.) served as subjects for the present investigation. Animals were housed in climate-controlled rooms on a 12/12 light dark cycle with on lights at 0600 hr. Rats were housed in groups of two and mice were housed in groups of eight. Food and water was available ad libitum except during experimental procedures.
# Rats were deeply anesthetized with isoflurane and blood samples were obtained by cardiac puncture, allowed to clot and then centrifuged at 12,000 rpm for 10 min to yield serum for analysis. Serum prolactin levels were quantified using a commercially available enzyme immunoassay kit (ALPCO Diagnostics, Windham, N.H.).
# catalepsy in rats = assay: Catalepsy assessment; type: in vivo
# Text: as §1
# In order to generate dose-response curves raw CVs were converted to percentage maximum possible catalepsy (% MPC): % MPC=((CV drug or drug combination−CV vehicle control)/(120−CV vehicle control))*100. […] Each dose or dose combination was assessed in separate groups of rats.
# [5] = haloperidol 2 mg per day alone or with pimavanserin 20 mg per day
# prolactin levels = settings: haloperidol-treated patients compared to risperidone patients
# [6] = test system: in vivo mouse model of cognition; assay: Novel object recognition assay; design: species or system mice; settings: pimavanserin (0.3 mg/kg) in combination with risperidone or olanzapine; FIG. 18
# Procedure: Compounds were administered to mice at one hour post-training (a time-point at which animals normally behaviorally discriminate between novel and familiar objects) and two hours post-training (a time-point at which these animals normally no longer discriminate between objects).
# [7] = test system: radial arm maze in vivo mouse model of cognition; assay: Radial arm maze model of cognition; design: species or system mice; settings: pimavanserin (1 mg/kg) in combination with risperidone; FIG. 19
# [8] = Pimavanserin plasma pharmacokinetics fitted to 1-compartment model; type: in vivo
# Text: Initial parameters for the simulation were obtained by fitting mean plasma concentration-time data to a 1-compartment model (first order input, no lag time and first order elimination).
# [9] = Simulation of pimavanserin plasma concentration-time profile, 20 mg once daily; settings: initial parameter for simulation, 20 mg once daily oral
# [10] = Unbound fraction in plasma; type: in vitro ADME; settings: parameter used for occupancy simulation, read-out: fu (unbound fraction in plasma)
# Text: CR may then be calculated using equation 2. CR=fu*Cpl(t), where fu is the free fraction of drug in plasma and Cpl(t) is the plasma concentration at time t.
# muscarinic receptors = assay: Activity at muscarinic receptors
# Text: (§2) Further, the compound lacks potency at the 5HT2B receptor that controls gastrointestinal function and myocardial development.
# histaminergic receptors = assay: Activity at histaminergic receptors
# Text: as §2
# alpha-adrenergic = assay: Alpha-adrenergic antagonist activity
# Text: as §2
# 5HT2B receptor = 5HT2B receptor (Homo sapiens, UniProt P41595); assay: Potency at 5HT2B receptor
# Text: […]. Further, the compound lacks potency at the 5HT2B receptor that controls gastrointestinal function and myocardial development.
# [11] = multiple oral doses; cited from earlier work
# [12] = test system: DOI induced head twitches in the rat; assay: DOI induced head twitches; settings: oral doses of 3 and 10 mg/kg
# [13] = test system: hyperactivity in mice induced by MK-801; assay: MK-801 induced hyperactivity; settings: oral doses of 3 and 10 mg/kg
# [14] = test system: auto-shaped response in mice; assay: Learning of a simple auto-shaped response; settings: intraperitoneal doses up to 32 mg/kg
# [15] = test system: rat model of deficits in sensory motor gating; assay: Sensory motor gating deficit induced by DOI; settings: doses of 1 and 3 mg/kg SC
# [16] = Brain levels of pimavanserin and haloperidol; settings: Pim + Veh
# [17] = combined with a fixed dose of pimavanserin (0.03 mg/kg)
# [18] = 14th oral dose of 50 mg, 1-compartment model
# [19] = plasma, 14th oral dose of 50 mg, 1-compartment model
# 5HT2B receptor, sequence (P41595 whole entry): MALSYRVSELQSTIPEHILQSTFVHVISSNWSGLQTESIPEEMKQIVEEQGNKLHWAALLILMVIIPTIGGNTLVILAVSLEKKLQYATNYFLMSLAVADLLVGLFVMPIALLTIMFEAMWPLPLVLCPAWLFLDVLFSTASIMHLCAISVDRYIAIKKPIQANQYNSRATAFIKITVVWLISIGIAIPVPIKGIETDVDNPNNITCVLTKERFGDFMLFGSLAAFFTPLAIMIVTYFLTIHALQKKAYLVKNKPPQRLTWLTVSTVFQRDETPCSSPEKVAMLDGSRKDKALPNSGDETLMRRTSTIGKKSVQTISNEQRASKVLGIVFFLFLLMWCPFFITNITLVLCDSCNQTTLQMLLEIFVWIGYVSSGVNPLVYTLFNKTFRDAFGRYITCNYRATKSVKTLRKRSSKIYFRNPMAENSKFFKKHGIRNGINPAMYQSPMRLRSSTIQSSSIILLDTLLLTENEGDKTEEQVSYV
compound,measurement,setting,value
O=C1CCc2ccc(OCCCCN3CCN(c4cccc(Cl)c4Cl)CC3)cc2N1 [aripiprazole],suppression of amphetamine-induced hyperlocomotion,[1]; agent alone,dose dependently attenuated hyperactivity produced by amphetamine
same,suppression of amphetamine-induced hyperlocomotor activity,[1],enhanced suppression of amphetamine-induced hyperlocomotor activity
same,shift of the dose-response curve,[1]; [17],significantly shifted to the left
C[C@]12N[C@H](Cc3ccccc31)c1ccccc12 [dizocilpine],total distance traveled (DT),"[2]; dizocilpine 0.3 mg/kg ip, vehicle controls 792±40 cm, 649±67 cm",2227±116 cm and 2020±223 cm
CC(N)Cc1ccccc1 (stereo not drawn) [amphetamine],total distance traveled (DT),"[1]; amphetamine 3 mg/kg ip, 15 min session, vehicle controls 876±42 cm",2764±230 cm
OCCOCCN1CCN(C2=Nc3ccccc3Sc3ccccc32)CC1 [quetiapine],suppression of amphetamine-induced hyperlocomotion,[1]; agent alone,dose dependently attenuated hyperactivity produced by amphetamine
same,suppression of amphetamine-induced hyperlocomotor activity,[1],enhanced suppression of amphetamine-induced hyperlocomotor activity
same,shift of the dose-response curve,[1]; [17],shifted to the left
"Cc1nc2n(c(=O)c1CCN1CCC(c3noc4cc(F)ccc34)CC1)CCCC2 [Risperidone, risperidone]",effectiveness compared with other treatments,[3]; low dose risperidone (2 mg per day),significantly less effective than the other treatments
same,mean change in PANNS score,"[3]; risperidone 2 mg per day, alone or co-administered with pimavanserin 20 mg per day",16.6 points
same,ID50,[2],0.0045 mg/kg
same,K01,[4],0.4403 h⁻¹
same,V1/F,[4],60222 mL
"O=C(CCCN1CCC(O)(c2ccc(Cl)cc2)CC1)c1ccc(F)cc1 [Haloperidol, haloperidol]",suppression of amphetamine-induced hyperlocomotion,[1]; agent alone,dose dependently attenuated hyperactivity produced by amphetamine
same,ID50,"[1]; agent alone, sc, from % MPI",0.012 mg/kg
same,suppression of amphetamine-induced hyperlocomotor activity,[1],enhanced suppression of amphetamine-induced hyperlocomotor activity
same,ID50,[1]; [17],0.0013 mg/kg
same,shift of the dose-response curve,[1]; [17],significantly shifted to the left by a factor of approximately 10
same,ID50,[2],0.07 mg/kg
same,"serum prolactin levels, dose response",serum prolactin levels,dose-related increase in serum prolactin levels
same,magnitude of prolactinemia,"serum prolactin levels; fixed dose haloperidol (0.1 mg/kg) or risperidone (0.01 mg/kg) in the presence of pimavanserin, FIG. 20B",significantly attenuated
same,serum prolactin levels,"serum prolactin levels; haloperidol 0.1 mg/kg ip, vehicle 31±3",102 ± 12 ng/mL
same,CD50 (dose that elicits 50% of maximum catalepsy),"catalepsy in rats; agent alone, ip",0.27 mg/kg
same,CD50,catalepsy in rats; in the presence of 1 mg/kg pimavanserin sc,0.24 mg/kg
same,CD50,catalepsy in rats; in the presence of 3 mg/kg pimavanserin sc,0.38 mg/kg
same,CD50,catalepsy in rats; in the presence of 10 mg/kg pimavanserin sc,0.53 mg/kg
same,Mean weight gain,[5],0.7657 kg
same,Final mean weight,[5]; end of study,83.759 kg
same,PRL levels,prolactin levels,lower
"CC(C)COc1ccc(CNC(=O)N(Cc2ccc(F)cc2)C2CCN(C)CC2)cc1 [Pimavanserin, N-(1-methylpiperidin-4-yl)-N-(4-fluorophenylmethyl)-N′-(4-(2-methylpropyloxy)phenylmethyl)carbamide]",suppression of amphetamine-induced hyperlocomotion,[1]; agent alone,failed to suppress hyperlocomotion produced by amphetamine
same,ID50,[2],0.09 mg/kg
same,percent novel object recognition,[6],reverses novel object recognition impairment caused by risperidone and olanzapine
same,working memory errors after repeated trials,[7],improved the cognitive deficit induced by risperidone
same,serum prolactin concentrations,"serum prolactin levels; 3 mg/kg pimavanserin sc, 60 min, below the limit of detection, value of 15 ng/mL assigned, vehicle 31±3",15 ± 0 ng/mL
same,"serum prolactin levels, dose response",serum prolactin levels,did not significantly elevate serum prolactin levels
same,catalepsy,catalepsy in rats; doses up to 10 mg/kg,did not elicit catalepsy
same,maximum CV (catalepsy value),"catalepsy in rats; doses up to 10 mg/kg, vehicle 6.8±0.9 sec",10.5 ± 2.4 s
same,Absorption rate constant (k01),[8]; [18],0.9197 h⁻¹
same,CL/F,[8]; [18],6.4 L/h
same,Elimination rate constant (k10),[8]; [18],0.0121 h⁻¹
same,half-life,"[8]; plasma, oral, 50 mg",57.3 h
same,Cmax,[8]; [19],89.3 ng/mL
same,Tmax,[8]; [19],4.77 h
same,AUC(0-t),"[8]; plasma, 14th oral dose of 50 mg, 1-compartment model, read-out: AUC (0-24)ss",1890 ng·h/mL
same,K01,[9],0.9197 L/h
same,V/F,[9],2182727 mL
same,fraction unbound,[10],0.05
same,activity at the muscarinic receptors,muscarinic receptors,does not have significant activity
same,activity at the histaminergic receptors,histaminergic receptors,does not have significant activity
same,alpha-adrenergic antagonist activities,alpha-adrenergic,lacks the alpha-adrenergic antagonist activities
same,potency at the 5HT2B receptor,5HT2B receptor,lacks potency
same,"oral clearance, previous reported value",[11],25.2 L/h
same,DOI induced head twitches,[12],effective
same,attenuation of hyperactivity induced by MK-801,[13],effective
same,learning of a simple auto-shaped response,[14],failed to disrupt learning of a simple auto-shaped response
same,gating deficit induced by DOI,[15],potently reversed the gating deficit induced by DOI
same,Pimavanserin brain levels,[16],23 (±6) nmol/kg
